From patent US20060069132A1, “Azolecarboxamide herbicides” (priority 2004, published 2006)

How the values were obtained:
[1] = test system: ducksalad; assay: Test C flooded paddy test; format: in vivo, Heteranthera limosa
[2] = test system: lambsquarters; assay: Test C pre-/postemergence herbicide test; format: in vivo, Chenopodium album; settings: for Plant response rating, Lambsquarters / Plant response rating (0 = no effect, 100 = complete control), Lambsquarters: preemergence
How it was run: (§1)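 Visual injury scores run from 0 (no effect) to 100 (complete control), assessed relative to untreated controls 12 to 14 days after treatment in the greenhouse. Chemicals were formulated in a non-phytotoxic solvent mixture with surfactant and applied to soil after planting or to emerged plants at the 1- to 4-leaf stage.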

[3] = test system: giant foxtail; assay: Test C pre-/postemergence herbicide test; format: in vivo, Setaria faberi; settings: for Plant response rating, Foxtail, Giant / Plant response rating (0 = no effect, 100 = complete control), Foxtail, Giant: preemergence
How it was run: as §1

[4] = test system: woolly cupgrass; assay: Test C pre-/postemergence herbicide test; format: in vivo, Eriochloa villosa; settings: for Plant response rating, Cupgrass, Woolly / Plant response rating (0 = no effect, 100 = complete control), Cupgrass, Woolly: preemergence
How it was run: as §1

[5] = test system: corn; assay: Test C pre-/postemergence herbicide test; format: in vivo, Zea mays; settings: for Plant response rating, Corn / Plant response rating (0 = no effect, 100 = complete control), Corn: preemergence
How it was run: as §1

[6] = test system: common (oilseed) sunflower; assay: Test C pre-/postemergence herbicide test; format: in vivo, Helianthus annuus; settings: for Plant response rating, Sunflower / Plant response rating (0 = no effect, 100 = complete control), Sunflower: preemergence
How it was run: as §1

[7] = test system: rice; assay: Test C flooded paddy test; format: in vivo, Oryza sativa
How it was run: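 Postemergence sprays applied to plants 2 to 18 cm tall (1- to 4-leaf stage); paddy species grown to 2-leaf stage under flooding. After 12 to 14 days in greenhouse, visual rating versus untreated controls on 0–100 scale (0 no effect, 100 complete control).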

[8] = test system: smallflower umbrella sedge; assay: Test C flooded paddy test; format: in vivo, Cyperus difformis
[9] = test system: morningglory; assay: Test C pre-/postemergence herbicide test; format: in vivo, Ipomoea coccinea; design: key to Plant response rating, Morningglory: 0 = no effect, 100 = complete control; settings: for Plant response rating, Morningglory / Plant response rating (0 = no effect, 100 = complete control), Morningglory: preemergence
How it was run: as §1

[10] = test system: Surinam grass; assay: Test C pre-/postemergence herbicide test; format: in vivo, Urochloa decumbens; settings: for Plant response rating, Surinam Grass / Plant response rating (0 = no effect, 100 = complete control), Surinam Grass: preemergence
How it was run: as §1

[11] = test system: yellow nutsedge; assay: Test C pre-/postemergence herbicide test; format: in vivo, Cyperus esculentus; settings: for Plant response rating, Nutsedge, Yellow / Plant response rating (0 = no effect, 100 = complete control), Nutsedge, Yellow: preemergence
How it was run: as §1

[12] = 125 g ai/ha, scale 0 to 100 (0 no effect, 100 complete control)
[13] = 250 g ai/ha, scale of 0 to 100, 0 is no effect, 100 is complete control
[14] = 500 g ai/ha, visual rating after 12 to 14 days, scale 0 to 100 (0 no effect, 100 complete control)
[15] = 500 g ai/ha, scale 0 to 100 (0 no effect, 100 complete control), visual, 12 to 14 days
[16] = 62 g ai/ha, scale 0 to 100 (0 no effect, 100 complete control)
[17] = 125 g ai/ha, scale of 0 to 100, 0 is no effect, 100 is complete control
[18] = 125 g ai/ha, scale 0 (no effect) to 100 (complete control), visual, 12 to 14 days
[19] = 250 g ai/ha, scale 0 to 100 (0 no effect, 100 complete control), visual, 12 to 14 days
[20] = Preemergence, 500 g ai/ha, scale 0 to 100, 0 no effect, 100 complete control

CCNC(=O)c1cccc(NC(=O)c2nn(C(C)(C)C)nc2C)c1 [Compound 392]
95: Plant response rating (0 = no effect, 100 = complete control), Morningglory ([9]; 125 g ai/ha)
50: Plant response rating (0 = no effect, 100 = complete control), Corn ([5]; 125 g ai/ha) | Plant response rating (0 = no effect, 100 = complete control), Sunflower ([6]; 125 g ai/ha) | Rice plant response rating ([7]; 62 g ai/ha, scale 0 to 100) | Plant response rating, Surinam Grass ([10]; 62 g ai/ha, scale 0 to 100)
45: Ducksalad plant response rating ([1]; 62 g ai/ha, scale 0 to 100)
100: Plant response rating, Lambsquarters ([2]; 62 g ai/ha, scale 0 to 100) | Plant response rating (0 = no effect, 100 = complete control), Lambsquarters ([2]; 125 g ai/ha) | Plant response rating, Lambsquarters ([2]; 250 g ai/ha, scale 0-100) | Plant response rating, Lambsquarters [2, 15] | Plant response rating, Foxtail, Giant ([3]; 250 g ai/ha, scale 0-100) | Plant response rating, Foxtail, Giant [3, 15] | Plant response rating, Sunflower [6, 15] | Plant response rating, Morningglory ([9]; 250 g ai/ha, scale 0-100) | Plant response rating, Morningglory [9, 15]
10: Plant response rating, Sunflower ([6]; 62 g ai/ha, scale 0 to 100) | Plant response rating (0 = no effect, 100 = complete control), Nutsedge, Yellow ([11]; 125 g ai/ha)
75: Ducksalad plant response rating [1, 12] | Rice plant response rating [7, 13] | Plant response rating, Rice [7, 14] | Sedge, Umbrella plant response rating [8, 12]
85: Ducksalad plant response rating [1, 13] | Plant response rating, Ducksalad [1, 14] | Plant response rating, Cupgrass, Woolly [4, 15] | Sedge, Umbrella plant response rating [8, 13] | Plant response rating, Sedge, Umbrella [8, 14] | Plant response rating (0 = no effect, 100 = complete control), Surinam Grass ([10]; 125 g ai/ha) | Plant response rating, Surinam Grass ([10]; 250 g ai/ha, scale 0-100)
60: Plant response rating, Cupgrass, Woolly ([4]; 250 g ai/ha, scale 0-100) | Rice plant response rating [7, 12]
40: Plant response rating (0 = no effect, 100 = complete control), Cupgrass, Woolly ([4]; 125 g ai/ha)
65: Plant response rating, Foxtail, Giant ([3]; 62 g ai/ha, scale 0 to 100)
0: Plant response rating, Nutsedge, Yellow ([11]; 62 g ai/ha, scale 0 to 100)
70: Sedge, Umbrella plant response rating ([8]; 62 g ai/ha, scale 0 to 100) | Plant response rating, Morningglory ([9]; 62 g ai/ha, scale 0 to 100)
90: Plant response rating (0 = no effect, 100 = complete control), Foxtail, Giant ([3]; 125 g ai/ha) | Plant response rating, Corn [5, 15] | Plant response rating, Surinam Grass [10, 15] | Plant response rating, Nutsedge, Yellow [11, 15]
80: Plant response rating, Corn ([5]; 250 g ai/ha, scale 0-100)
30: Plant response rating, Cupgrass, Woolly ([4]; 62 g ai/ha, scale 0 to 100) | Plant response rating, Corn ([5]; 62 g ai/ha, scale 0 to 100) | Plant response rating, Nutsedge, Yellow ([11]; 250 g ai/ha, scale 0-100)

CCN(C)C(=O)c1cccc(NC(=O)c2cc(C(C)(C)C)nn2CC)c1 [Compound 48]
10: Plant response rating, Foxtail, Giant [3, 19] | Plant response rating, Nutsedge, Yellow [11, 19]
5: Plant response rating, Cupgrass, Woolly [4, 19] | Plant response rating, Surinam Grass [10, 18]
85: Plant response rating (0 = no effect, 100 = complete control), Lambsquarters ([2]; 62 g ai/ha)
50: Foxtail, Giant plant response rating [3, 20]
95: Plant response rating, Lambsquarters [2, 18] | Plant response rating, Lambsquarters [2, 19] | Lambsquarters plant response rating [2, 20]
30: Plant response rating, Surinam Grass [10, 19] | Nutsedge, Yellow plant response rating [11, 20]
0: Ducksalad plant response rating ([1]; 16 g ai/ha, scale 0 to 100) | Ducksalad plant response rating ([1]; 31 g ai/ha, scale 0 to 100) | Plant response rating (0 = no effect, 100 = complete control), Foxtail, Giant ([3]; 62 g ai/ha) | Plant response rating, Foxtail, Giant [3, 18] | Plant response rating (0 = no effect, 100 = complete control), Cupgrass, Woolly ([4]; 62 g ai/ha) | Plant response rating, Cupgrass, Woolly [4, 18] | Plant response rating (0 = no effect, 100 = complete control), Corn ([5]; 62 g ai/ha) | Plant response rating, Corn [5, 18] | Plant response rating, Corn [5, 19] | Corn plant response rating [5, 20] | Plant response rating (0 = no effect, 100 = complete control), Sunflower ([6]; 62 g ai/ha) | Plant response rating, Sunflower [6, 18] | Plant response rating, Sunflower [6, 19] | Sunflower plant response rating [6, 20] | Rice plant response rating ([7]; 16 g ai/ha, scale 0 to 100) | Rice plant response rating ([7]; 31 g ai/ha, scale 0 to 100) | Rice plant response rating [7, 16] | Sedge, Umbrella plant response rating ([8]; 16 g ai/ha, scale 0 to 100) | Sedge, Umbrella plant response rating ([8]; 31 g ai/ha, scale 0 to 100) | Plant response rating (0 = no effect, 100 = complete control), Morningglory ([9]; 62 g ai/ha) | Plant response rating, Morningglory [9, 19] | Plant response rating (0 = no effect, 100 = complete control), Surinam Grass ([10]; 62 g ai/ha) | Plant response rating (0 = no effect, 100 = complete control), Nutsedge, Yellow ([11]; 62 g ai/ha) | Plant response rating, Nutsedge, Yellow [11, 18]
60: Sedge, Umbrella plant response rating [8, 16] | Sedge, Umbrella plant response rating [8, 17] | Surinam Grass plant response rating [10, 20]
20: Ducksalad plant response rating [1, 16] | Cupgrass, Woolly plant response rating [4, 20] | Rice plant response rating [7, 17] | Morningglory plant response rating [9, 20]
40: Ducksalad plant response rating [1, 17]
